The record followed here is patent US11944593B2, “Myrcene-containing complex mixtures targeting TRPV1” (GBS GLOBAL BIOPHARMA, INC., priority 2017, dated 2024).

Assay type in all cases: cell-based
Test [1] has as its target T1, TRPV1 (Rattus norvegicus, UniProt O35433).
T1 construct: FLAG; expressed in transfected cells; host or cells: TRex HEK293 (HEK293 stably carrying pcDNA6TR), induced with tetracycline
In words: TRPV1-mediated calcium flux (Fluo-4) in HEK cells inducibly expressing TRPV1. The following applies: for calcium flux (Fluo-4 RFU) in TRPV1-expressing HEK cells: stimulus applied to cell culture medium, mixtures at Table 1 concentrations; for suppression of later calcium response by pre-incubation (desensitization): 24 hours pre-incubation with the same compound; for AUC of calcium response curve, first application: AUC (between 20-300 nM), compound first introduced to TRPV1-expressing cells; for concentration inducing calcium influx to a similar degree (by AUC): AUC between 20 and 300 nM of calcium response curves; for AUC of calcium response after 24 hours incubation with the same compound: cells incubated with compound for 24 hours, then re-stimulated. The method, then:
The HEK293 cell line was stably transfected with the pcDNA6TR (Invitrogen, CA) plasmid (encoding the tetracycline-sensitive TREx repressor protein), and was maintained in DMEM+10% fetal bovine serum (inactivated at 55° C. for 1 h)+2 mM glutamine in humidified 5% CO2 atmosphere at 37° C. Selection pressure on the TRex 293 cells was maintained by continuous culture in 10 μg/ml Blasticidin (Sigma, St Louis, Mo.).
For production of TRex HEK293 cells with inducible expression of TRPV1, parental cells were electroporated with the rat TRPV1 cDNA in the pcDNA4TO vector and clonal cell lines were selected by limiting dilution in the presence of 400 μg/ml zeocin (Invitrogen, CA). TRPV1 expression was induced using 1 μg/ml tetracycline for 16 h at 37° C.
(§1) Calcium responses mediated by TRPV1 were tested by calcium assay in the cell culture system. Cells were washed and incubated with 0.2 μM fluo-4 acetoxymethyl ester (“Fluo-4”) for 30 minutes at 37° C. in a standard modified Ringer's solution of the following composition (in mM): NaCl 145, KCl 2.8, CsCl 10, CaCl2 10, MgCl2 2, glucose 10, Hepes.NaOH 10, pH 7.4, 330 mOsm. Cells were transferred to 96-well plates at 50,000 cells/well and stimulated as indicated. Calcium signals were acquired using a Flexstation 3 (Molecular Devices, Sunnydale, USA). Data was analyzed using SoftMax® Pro 5 (Molecular Devices). Where indicated, nominally calcium-free external conditions were achieved by the preparation of 0 mM CaCl2 Ringer solution containing 1 mM EGTA. Where indicated, capsaicin (10 μM) and ionomycin (500 nM) were used as positive controls to induce calcium responses. Capsazepine (10 μM) was used where indicated to specifically antagonize TRPV1-mediated calcium responses. Where indicated, baseline traces (no stimulation, NS) were subtracted. Where indicated, vehicle alone traces were subtracted. Where indicated, vehicle comprising various diluents matched to corresponding mixtures was used as a negative control.
For orientation: Calcium assays in cells follow changes in intracellular calcium, usually with a dye or a luminescent sensor.

In another test the test system is HEK wild type cells. Kind of test: Calcium flux (Fluo-4) in wild-type HEK cells without TRPV1 construct. The settings on record: same stimulus conditions as TRPV1-expressing cells. The method, then: as §1
Test [2] addresses T1, TRPV1. In words: Whole-cell patch clamp in single HEK293 cells overexpressing TRPV1. The settings on record: for inward current: average of 6 independent experiments; for outward current relative to inward current: then 1 μM capsaicin. How it is done:
HEK293 cells were kept in sodium-based extracellular Ringer's solution containing 140 mM NaCl, 1 mM CaCl2, 2 mM MgCl2, 2.8 mM KCl, 11 mM glucose, and 10 mM HEPES-NaOH, pH 7.2 and osmolarity 300 mOsmol. The cells' cytosol was perfused with intracellular patch pipette solution containing 140 mM Cs-glutamate, 8 mM NaCl, 1 mM MgCl2, 3 mM MgATP, and 10 mM HEPES-CsOH. The standard internal Ca^2+ concentration was buffered to 180 nM with 4 mM Ca and 10 mM BAPTA. The level of free unbuffered Ca was adjusted using the calculator provided with WebMaxC (http://www.stanford.edu/˜cpatton/webmaxcS.htm). The pH of the final solution was adjusted to pH 7.2 and osmolarity measured at 300 mOsmol.
1 μM capsaicin was used as a positive control for TRPV1 activation. Rapid extracellular solution application and exchange was performed with the SmartSquirt delivery system (Auto-Mate Scientific, San Francisco). The system includes a ValveLink TTL interface between the electronic valves and the EPC-9 amplifier (HEKA, Lambrecht, Germany). This configuration allows for programmable solution changes via the PatchMaster software (HEKA, Lambrecht, Germany).
Patch-clamp experiments were performed in the whole-cell configuration at 21-25° C. Patch pipettes had resistances of 2-3 MΩ. Data was acquired with PatchMaster software controlling an EPC-9 amplifier. Voltage ramps of 50 ms spanning the voltage range from −100 to 100 mV were delivered from a holding potential of 0 mV at a rate of 0.5 Hz over a period of […]. Voltages were corrected for a liquid junction potential of 10 mV. Currents were filtered at 2.9 kHz and digitized at 100 μs is intervals. Capacitive currents were determined and corrected before each voltage ramp. The development of currents for a given potential was extracted from individual ramp current records by measuring the current amplitudes at voltages of −80 mV and +80 mV. Data were analyzed with FitMaster (HEKA, Lambrecht, Germany), and IgorPro (WaveMetrics, Lake Oswego, Oreg., USA). Where applicable, statistical errors of averaged data are given as mean±s.e.m.
A general note: Patch clamp records ionic current or voltage across a cell membrane.

Where [3] appears, read: pre-incubation with 500 nM ionomycin.

T1 sequence (O35433 whole entry): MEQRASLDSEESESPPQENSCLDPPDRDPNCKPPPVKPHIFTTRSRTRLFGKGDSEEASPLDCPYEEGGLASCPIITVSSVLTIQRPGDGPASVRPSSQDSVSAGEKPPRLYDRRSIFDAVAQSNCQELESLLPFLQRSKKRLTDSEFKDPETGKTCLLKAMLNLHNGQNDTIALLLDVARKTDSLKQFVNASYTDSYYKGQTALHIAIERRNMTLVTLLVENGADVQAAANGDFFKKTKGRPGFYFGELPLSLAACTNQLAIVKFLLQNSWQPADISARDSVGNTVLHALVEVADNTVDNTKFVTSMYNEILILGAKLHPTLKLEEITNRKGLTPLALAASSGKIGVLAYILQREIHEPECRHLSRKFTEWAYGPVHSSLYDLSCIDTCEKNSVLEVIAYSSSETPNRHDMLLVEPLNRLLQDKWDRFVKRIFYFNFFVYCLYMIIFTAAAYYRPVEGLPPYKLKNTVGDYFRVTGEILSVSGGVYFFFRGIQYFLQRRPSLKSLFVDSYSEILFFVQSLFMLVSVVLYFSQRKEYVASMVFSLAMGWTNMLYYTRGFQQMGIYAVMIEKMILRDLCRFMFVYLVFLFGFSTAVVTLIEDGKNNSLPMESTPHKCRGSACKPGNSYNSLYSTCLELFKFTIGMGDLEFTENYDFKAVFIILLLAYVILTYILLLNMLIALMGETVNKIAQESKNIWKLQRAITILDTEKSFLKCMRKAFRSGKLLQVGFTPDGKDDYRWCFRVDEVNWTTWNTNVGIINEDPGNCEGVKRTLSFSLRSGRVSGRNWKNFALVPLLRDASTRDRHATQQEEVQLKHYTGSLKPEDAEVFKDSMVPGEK

With `CCCCCc1cc(O)c2c(c1)OC(C)(CCC=C(C)C)C=C2` (centres unmarked) [cannabichromene], the “calcium flux (Fluo-4 RFU) in TRPV1-expressing HEK cells” value (“calcium flux (Fluo-4 RFU)” below) on TRPV1 [1] is “calcium flux was detected”. In addition, the “calcium flux in wild-type HEK cells without TRPV1” value with HEK wild type cells is “only minimal or absent”.
Take `C=C(C)[C@@H]1CCC(C)=C[C@H]1c1c(O)cc(CCCCC)cc1O` [cannabidiol]: the “calcium flux (Fluo-4 RFU)” value at TRPV1 [1] is “calcium flux was detected”. The “calcium flux in wild-type HEK cells without TRPV1” value in the test with HEK wild type cells is listed as “only minimal or absent”.
For the compound `C=C(C)[C@@H]1CCC(C)=C[C@H]1c1c(O)cc(CCCCC)c(C(=O)O)c1O` [cannabidiolic acid], the “calcium flux (Fluo-4 RFU)” value at TRPV1 [1] is listed as “calcium flux was detected”. Besides, the “calcium flux in wild-type HEK cells without TRPV1” value with HEK wild type cells is reported as “only minimal or absent”.
In the case of `C=C(C)[C@@H]1CCC(C)=C[C@H]1c1c(O)cc(CCC)cc1O` [cannabidivarin], on TRPV1 [1], the “calcium flux (Fluo-4 RFU)” value is given as “calcium flux was detected”. In the test with HEK wild type cells, the “calcium flux in wild-type HEK cells without TRPV1” value is on record as “only minimal or absent”.
The corresponding values for `CCCCCc1cc(O)c(C/C=C(\C)CCC=C(C)C)c(O)c1C(=O)O` [cannabigerolic acid] are “calcium flux was detected” and “only minimal or absent”.
Take `COc1cc(CNC(=O)CCCC/C=C/C(C)C)ccc1O` [capsaicin, reference compound]: at TRPV1 [1], the “suppression of later calcium response by pre-incubation (desensitization)” value is listed as 69%; the “AUC of calcium response curve, first application” value (“AUC of calcium response curve” for short) was 124; the “concentration inducing calcium influx to a similar degree (by AUC)” value was “about 30 nM”; the “AUC of calcium response after 24 hours incubation with the same compound” value amounted to 38. The “calcium flux (Fluo-4 RFU)” value at TRPV1 [1] was “capsaicin-specific calcium fluxes”. On TRPV1 [2] (1 μM capsaicin (not shown)), the current induced is recorded as 4-10 nA. Also, on TRPV1 [2] (1 μM capsaicin applied after myrcene), the inward current entry is “approximately 9 nA”. The “outward current relative to inward current” value on TRPV1 [2] (5 μM myrcene) is on record as “at a lower amplitude than the inward current”.
As to `Oc1cc2c(cc1O)CN(C(=S)NCCc1ccc(Cl)cc1)CCC2` [capsazepine, reference compound], at TRPV1 [1] (10 μM capsazepine added to cells activated with 3.5 μm/ml myrcene), the “effect on calcium flux induced by myrcene” value is listed as “diminished”.
With `C[C@H](CCC(=O)O)C[C@H](C)C[C@H](C)C(=O)/C=C(\O)[C@H](C)C[C@H](C)C/C=C/[C@@H](C)[C@@H](O)[C@@H](C)[C@@H](O)C[C@@H]1CC[C@@](C)([C@H]2CC[C@@](C)([C@@H](C)O)O2)O1` [ionomycin, reference compound], the “AUC of calcium response curve” value at TRPV1 [1] was determined as 128. On TRPV1 [1] (setting [3]), the “reduction of later calcium influx in response to capsaicin” value is listed as 38% and the “reduction of later calcium influx in response to myrcene” value is reported as 27%.
As to `C=CC(=C)CCC=C(C)C` [myrcene, 7-methyl-3-methylideneocta-1,6-diene], at TRPV1 [1], the “suppression of later calcium response by pre-incubation (desensitization)” value was found to be 52%; the “AUC of calcium response curve” value was determined as 66; the “concentration inducing calcium influx to a similar degree (by AUC)” value is “about 200 nM”; the “AUC of calcium response after 24 hours incubation with the same compound” value turned out to be 32. Further, on TRPV1 [1], the “calcium flux (Fluo-4 RFU)” value is on record as “significant calcium flux was detected”. For the same compound, the “calcium-mediated fluorescence under calcium-free medium conditions, high concentration” value at TRPV1 [1] (myrcene 3.5 μg/ml, calcium-free medium) is reported as “induced such increase”. On TRPV1 [1] (myrcene 0.43, 0.875 and 1.75 μg/ml, calcium-free medium), the “calcium-mediated fluorescence under calcium-free medium conditions, low concentrations” value is reported as “did not cause increase of calcium-mediated fluorescence”. Besides, the “calcium responses to different concentrations of myrcene” value on TRPV1 [1] (myrcene 3.5 μm/ml, 1.75 μg/ml, 0.875 μm/ml and 0.43 μm/ml) was “dose-dependent”. The “calcium flux in wild-type HEK cells without TRPV1” value with HEK wild type cells was “much smaller”. Moreover, the “outward current relative to inward current” value on TRPV1 [2] (5 μM myrcene) was “at a lower amplitude than the inward current”. Besides, the inward current entry at TRPV1 [2] (5 μM myrcene, 1 mM Ca) is recorded as “approximately 0.5 nA”. In addition, the current induced on TRPV1 [2] (5 μM, 10 μM and 150 μM myrcene) is on record as 0.5-2.2 nA. The “current response in individual cells to increasing myrcene” value on TRPV1 [2] (5 μM, 10 μM, 150 μM myrcene) is recorded as “dose-dependent response”. In addition, the “TRPV1 channel permeation state activated” value at TRPV1 [2] (IV relationship, State 1 vs State 2 (dilated)) is on record as “primarily in State 1”.
With `C=CC(C)(O)CCC=C(C)CCC=C(C)C` (centres unmarked) [nerolidol], the “calcium flux (Fluo-4 RFU)” value at TRPV1 [1] is on record as “significant calcium flux was detected”; at TRPV1 [1] (listed as Nerolidol), “more modest agonist activity”.
